Results: publication PMC9841521, “Subnanomolar Affinity and Selective Antagonism at α7 Nicotinic Receptor by Combined Modifications of 2-Triethylammonium Ethyl Ether of 4-Stilbenol (MG624)” (Journal of Medicinal Chemistry, 2022)
“Also recorded” adds a separate entry of the source.

biological target: T1, human α3β4-nAChR subtype (Homo sapiens, UniProt P30926+P32297); test: Competition binding with [3H]epibatidine, membranes of SH-EP1 cells stably transfected with α3 and β4; conditions: binding affinities
T1 construct: expressed in transfected cells

SMILES | higher affinity for the α3β4- than for the α7-nAChR
CC[N+](CC)(CC)CCOc1ccc(-c2cccc3ccccc23)cc1.[I-] [Compound 9, N,N,N-Triethyl-2-(4-(naphthalen-1-yl)phenoxy)ethan-1-aminium Iodide] | ≈ 30 fold

same assay, conditions: human α3β4 expressed in SH-EP1 cells; confidence interval in parentheses; read-out: α3β4-nAChR [3H]-Epi Ki

SMILES | Ki [nM]
CC[N+](CC)(CC)CCOc1ccccc1 [Compound 3, N,N,N-Triethyl-2-phenoxyethan-1-aminium Iodide] | 10000
C=Cc1ccc(OCC[N+](CC)(CC)CC)cc1 [Compound 4, N,N,N-Triethyl-2-(4-vinylphenoxy)ethan-1-aminium Iodide] | 1070
CC[N+](CC)(CC)CCOc1ccc(-c2ccccc2)cc1 [Compound 5, 2-([1,1′-Biphenyl]-4-yloxy)-N,N,N-triethylethan-1-aminium Iodide] | 440
CC[N+](CC)(CC)CCOc1ccc(CCc2ccccc2)cc1.[I-] [Compound 6, N,N,N-Triethyl-2-(4-phenethylphenoxy)ethan-1-aminium Iodide] | 1250
CC[N+](CC)(CC)CCOc1ccc(C#Cc2ccccc2)cc1 [Compound 7, N,N,N-Triethyl-2-(4-(phenylethynyl)phenoxy)ethan-1-aminium Iodide] | 912
CC[N+](CC)(CC)CCOc1ccc(-c2ccc3ccccc3c2)cc1 [Compound 8, N,N,N-Triethyl-2-(4-(naphthalen-2-yl)phenoxy)ethan-1-aminium Iodide] | 458
CC[N+](CC)(CC)CCOc1ccc(/C=C/c2cccc3ccccc23)cc1 [Compound 10, (E)-N,N,N-Triethyl-2-(4-(2-(naphthalen-1-yl)vinyl)phenoxy)ethan-1-aminium Iodide] | 501
CC[N+](CC)(CC)CCOc1ccc(/C=C/c2ccc3ccccc3c2)cc1 [Compound 11, (E)-N,N,N-Triethyl-2-(4-(2-(naphthalen-2-yl)vinyl)phenoxy)ethan-1-aminium Iodide] | 425
CC[N+](CC)(CC)CCOc1ccc(/C=C/c2cccc(C(F)(F)F)c2)cc1 [Compound 15, (E)-N,N,N-Triethyl-2-(4-(3-(trifluoromethyl)styryl)phenoxy)ethan-1-aminium Iodide] | 1410
CC[N+](CC)(CC)CCOc1ccc(/C=C/c2ccc(C(F)(F)F)cc2)cc1 [Compound 16, (E)-N,N,N-Triethyl-2-(4-(4-(trifluoromethyl)styryl)phenoxy)ethan-1-aminium Iodide] | 874
CC[N+](CC)(CC)CCOc1ccc(/C=C/c2ccc(OC)cc2)cc1 [Compound 18, (E)-N,N,N-Triethyl-2-(4-(4-methoxystyryl)phenoxy)ethan-1-aminium Iodide] | 187
CC[N+](CC)(CC)CCOc1ccc(/C=C/c2cccc(O)c2)cc1 [Compound 19, (E)-N,N,N-Triethyl-2-(4-(3-hydroxystyryl)phenoxy)ethan-1-aminium Iodide] | 998

biological target: T2, human α4β2-nAChR subtype (Homo sapiens, UniProt P17787+P43681); test: Competition binding with [3H]epibatidine, membranes of HEK 293 cells stably transfected with α4 and β2; conditions: human α4β2 expressed in HEK 293 cells; confidence interval in parentheses; read-out: α4β2-nAChR [3H]-Epi Ki
T2 construct: expressed in transfected cells; gift of Dr. Jon Lindstrom

SMILES | Ki [nM]
CC[N+](CC)(CC)CCOc1ccccc1 [Compound 3, N,N,N-Triethyl-2-phenoxyethan-1-aminium Iodide] | 19000
C=Cc1ccc(OCC[N+](CC)(CC)CC)cc1 [Compound 4, N,N,N-Triethyl-2-(4-vinylphenoxy)ethan-1-aminium Iodide] | 24000
CC[N+](CC)(CC)CCOc1ccc(-c2ccccc2)cc1 [Compound 5, 2-([1,1′-Biphenyl]-4-yloxy)-N,N,N-triethylethan-1-aminium Iodide] | 11800
CC[N+](CC)(CC)CCOc1ccc(C#Cc2ccccc2)cc1 [Compound 7, N,N,N-Triethyl-2-(4-(phenylethynyl)phenoxy)ethan-1-aminium Iodide] | 19400
CC[N+](CC)(CC)CCOc1ccc(-c2ccc3ccccc3c2)cc1 [Compound 8, N,N,N-Triethyl-2-(4-(naphthalen-2-yl)phenoxy)ethan-1-aminium Iodide] | 1800
CC[N+](CC)(CC)CCOc1ccc(/C=C/c2cccc(C(F)(F)F)c2)cc1 [Compound 15, (E)-N,N,N-Triethyl-2-(4-(3-(trifluoromethyl)styryl)phenoxy)ethan-1-aminium Iodide] | 21800
CC[N+](CC)(CC)CCOc1ccc(/C=C/c2ccc(C(F)(F)F)cc2)cc1 [Compound 16, (E)-N,N,N-Triethyl-2-(4-(4-(trifluoromethyl)styryl)phenoxy)ethan-1-aminium Iodide] | 10400
CC[N+](CC)(CC)CCOc1ccc(/C=C/c2cccc(O)c2)cc1 [Compound 19, (E)-N,N,N-Triethyl-2-(4-(3-hydroxystyryl)phenoxy)ethan-1-aminium Iodide] | 10100

biological target: human α7-nAChR (Homo sapiens, UniProt P36544); test: Two-electrode voltage clamp, antagonism of currents activated by 1 mM ACh, test compound coapplied, X. laevis oocytes; assay type: cell-based; conditions: coapplied with 1 mM ACh, up to 100 μM

SMILES | inhibition of ACh-induced α7-nAChR function (in words)
CC[N+](CC)(CC)CCOc1ccc(CCc2ccccc2)cc1.[I-] [Compound 6, N,N,N-Triethyl-2-(4-phenethylphenoxy)ethan-1-aminium Iodide] | no inhibition; also recorded: no effect; also recorded: devoid of α7-nAChR antagonism

same assay, conditions: supplementary CSV

SMILES | alpha7 nAChR IC50 (AUC) | alpha7 nAChR IC50 (peak current)
CC[N+](CC)(CC)CCOc1ccc(CCc2ccccc2)cc1.[I-] [Compound 6, N,N,N-Triethyl-2-(4-phenethylphenoxy)ethan-1-aminium Iodide] | not active | not active

biological target: T3, human α9α10-nAChR (Homo sapiens, UniProt Q9GZZ6+Q9UGM1); test: Two-electrode voltage clamp, antagonism of currents activated by 1 mM ACh, test compound coapplied, X. laevis oocytes (α9:α10 cRNA 9:1); assay type: cell-based; conditions: coapplied with 1 mM ACh, up to 100 μM
T3 construct: expressed in transfected cells; host or cells: Xenopus laevis oocytes (cRNA injection, α9:α10 9:1)

SMILES | inhibition of ACh-induced α9α10-nAChR function (in words)
CC[N+](CC)(CC)CCOc1ccc(CCc2ccccc2)cc1.[I-] [Compound 6, N,N,N-Triethyl-2-(4-phenethylphenoxy)ethan-1-aminium Iodide] | essentially full inhibition

same assay, conditions: coapplied with 1 mM ACh, up to 100 μM; 95% confidence interval in parentheses

SMILES | IC50 [nM]
CC[N+](CC)(CC)CCOc1ccc(CCc2ccccc2)cc1.[I-] [Compound 6, N,N,N-Triethyl-2-(4-phenethylphenoxy)ethan-1-aminium Iodide] | 9120

biological target: T3, human α9α10-nAChR; test: Two-electrode voltage clamp, compound applied alone at 100 μM: intrinsic activity, rebound current, residual ACh response; assay type: cell-based; conditions: 100 μM pulse, alone; vs 1 mM ACh; range over the named compounds

SMILES | partial agonism of α9α10-nAChRs, efficacy (AUC) | partial agonism of α9α10-nAChRs, efficacy (peak current)
CC[N+](CC)(CC)CCOc1ccc(CCc2ccccc2)cc1.[I-] [Compound 6, N,N,N-Triethyl-2-(4-phenethylphenoxy)ethan-1-aminium Iodide] | 0.2–3 % of ACh control | 5–55 % of ACh control

same assay, conditions: final 1 mM ACh 1 min after 100 μM compound; Figure 3B

SMILES | block of subsequent ACh-induced function at α9α10-nAChRs (in words)
CC[N+](CC)(CC)CCOc1ccc(CCc2ccccc2)cc1.[I-] [Compound 6, N,N,N-Triethyl-2-(4-phenethylphenoxy)ethan-1-aminium Iodide] | significantly block
